assay: Human HepG2 cell viability assay in 384 well format; format: toxicity, cell-based; parameters: dose 125 nL, time 70.5 hour; concentration not given beside the values; conditions: HepG2 cells, read-out: Inhibition

Point of comparison: `CNc1cc2c(nn1)CCN(C(=O)C1CCCc3ccccc31)C2` (stereo not drawn), cytotoxicity at 70.5 h -19%. Against it:
- CN1CCCc2cc(CNC(=O)c3cc[n+]([O-])cc3)ccc21 — higher, -6.17%
- c1cc(CN2CCC3(CCOCC3COCC3CC3)CC2)ccn1 (stereo not drawn) — higher, 0.537%
- CCc1ccsc1C(=O)NCCn1nc2ccccn2c1=O — higher, -5.41%
- Cc1nnc(SCC(=O)N2CCc3[nH]nc(C4CCC4)c3C2)o1 — higher, 8.24%
- CCOC(=O)C1CC2(CCOCC2)N2CCC(=O)N12 (stereo not drawn) — higher, -6.97%
- CC(=O)c1cc(CN2CCCC23CCN(c2ccccn2)CC3)cs1 — lower, -19.2%
- COCCNc1cc(-c2ccccc2S(N)(=O)=O)c2cc[nH]c2n1 — higher, -7.36%
- CC(C(=O)NCc1ccnc(N2CCN(C)CC2)c1)n1cccn1 (stereo not drawn) — higher, -5.91%
- COc1ccc(NC(=O)CSc2ccc3nncn3n2)c(OC)c1 — higher, -15.9%
- CCN(Cc1cscn1)CC1(C)Cc2c(N)nc(N)nc2O1 (stereo not drawn) — higher, 6.12%
- CC(Cn1cccn1)NCc1ccc(OCc2ccncc2)cc1 (stereo not drawn) — higher, 3.19%
- Nc1nc2c(c(NC(=O)Nc3cccc(Cl)c3)n1)CCCC2 — higher, 13.3%
- O=C(NCc1cccnc1N1CCCC(O)C1)c1ccc2[nH]nnc2c1 (stereo not drawn) — lower, -25%
- C1=C(c2c[nH]c3ncccc23)CCN(Cc2nnc(C3CC3)o2)C1 — higher, 12.3%
- CNC(=O)c1n[nH]c2c1C(c1cccc3c1OC(C)(C)C3)CC(=O)N2 (stereo not drawn) — higher, -1.8%
- Cc1noc([C@H]2C[C@H]3OCC[C@H]3N(Cc3scnc3C)C2)n1 — higher, -7.11%
- Cn1cc(CCNCc2cc(Br)c3c(c2)OCO3)cn1 — higher, 23.7%
- Cc1nc(C2CCCN(C(C)C)C2)sc1Br (stereo not drawn) — higher, -4.14%
- COCCn1cc(C(=O)Nc2nc3c(s2)CCC3)c2ccccc21 — higher, 37%
- CCc1nc(N)nc(NCCC(=O)N2CCCC2)c1C — higher, 23.5%
- CN1CCN(C(=O)c2ccc(=O)n(C)c2)c2ccccc21 — higher, -1.74%
- Cc1ccoc1C(=O)NC1CCN(Cc2cccc3c2OCCO3)CC1 — higher, 6.48%
- CCc1ocnc1C(=O)N1CCOCC1CC(=O)c1ccccc1 (stereo not drawn) — higher, -7.1%
- CC(C)c1nc(C2CCCN(C(=O)c3ccc4c(c3)OCO4)C2)no1 (stereo not drawn) — higher, 18.1%
- Cc1cccc(N2CCN(Cc3nc(CC4CC4)no3)CC2)n1 — higher, 1.5%
- O=C(c1cnccn1)N1CCN(Cc2ccncc2)c2ncccc2C1 — higher, -5.23%
- Cc1cc(CN2CCC3(CC2)COC(COc2ccccn2)C3)no1 (stereo not drawn) — higher, 43%
- Cc1ccc(F)c(NS(=O)(=O)c2cc3c(c(C(=O)O)c2)OCCO3)c1 — higher, 2.59%
- CC(=O)N1CCCC1c1cc(N2CCN(CC(C)(C)C)CC2)cc(C)n1 (stereo not drawn) — higher, -7.87%
- O=C(c1cccnc1)N1CCC2(CC1)CNc1c(F)cccc12 — higher, -1.96%
- COCCN1CCC2(CC1)CC(NC(=O)CN(C)C)c1ccccc1O2 (stereo not drawn) — higher, -6.88%
- Cc1ccc(C2CSCCN2C(=O)c2ccoc2C)o1 (stereo not drawn) — higher, -8.94%
- Cc1ccc([C@]2(O)CC[C@H]3CN(Cc4ccncc4)C[C@H]32)nc1 — higher, 36%
- COc1c(CNC(c2nccn2C)C(C)C)c(C)nn1C (stereo not drawn) — higher, -6.48%
- COc1cc(N2C[C@H]3CN(CC(=O)N(C)C)C(=O)[C@H]3C2)ncn1 — higher, 28.2%
- CCOC(=O)CNC(=O)NCc1cccn1Cc1cccc(C)c1 — higher, -18.9%
- CCCOc1cc(CNC(=O)Nc2cccnc2N2CCCC2)ccn1 — lower, -24.2%
- CC(Sc1nnc(C2CC2)n1CC(N)=O)c1ccc(Cl)cc1 (stereo not drawn) — higher, -8.5%
- CCN(CC)c1nc(O)cc(C(C)n2ncc3ccccc3c2=O)n1 (stereo not drawn) — higher, -4.03%
- CCCC1CN(CCOc2ccccc2)C(=O)c2cccnc2O1 (stereo not drawn) — higher, 4.28%
- Cc1cnn(C2CN(CCOc3ccccc3C#N)C2)c1 — higher, -4.34%
- Cc1ccnc(CC(C)N(C)c2cc(CCN)nc(C)n2)c1 (stereo not drawn) — higher, -6.01%
- CN(C)C(=O)[C@H]1C[C@@H]2CCN(Cc3ccncc3)C[C@H]2O1 — higher, -7.62%
- Cc1cc(N2CCC3(CCC(=O)N(CC4CC4)C3)CC2)nc(N)n1 — higher, -9.89%
- CNC(=O)Cn1c(-c2ccco2)nn(-c2ccccc2OC)c1=O — higher, 9.58%
- CC(C)c1noc(CN2CCCC2c2noc(C(C)C)n2)n1 (stereo not drawn) — higher, -9.32%
- CCCc1nc(C(=O)NCCN2CCC(c3ccccc3C)C2)cs1 (stereo not drawn) — higher, 0.739%
- CNS(=O)(=O)c1ccc(CNC(=O)c2c(C)oc(C)c2C)cc1 — higher, -12.9%
- CN(Cc1cccnc1)CC1CN(C(=O)C2CC2)Cc2nccn2C1 (stereo not drawn) — higher, -7.48%
- CC(C)c1noc(CNc2ccc(OC(F)F)cc2OC(F)F)n1 — higher, 8.88%
- CN1CCN(S(=O)(=O)N2CCCCC2CCc2ccc(O)cc2)CC1 (stereo not drawn) — higher, -4.09%
- Cc1nn(C)c(C)c1C1CCCN1C(=O)c1cnccn1 (stereo not drawn) — higher, -2.94%
- CN1CCN(C(=O)c2cccc(OCc3cscn3)c2)CC1 — higher, 4.86%
- Cc1nc(N2C[C@@H](CN3CCCCC3)[C@@H](CO)C2)c2sccc2n1 — higher, 8.31%
- CC(C)CN1CCCC1c1ccc(C(=O)Nc2cn(C)nn2)s1 (stereo not drawn) — higher, -0.657%
- Cn1nnc2c(N3CC(C(=O)NCCC4=CCCCC4)C3)ncnc21 — higher, -18.5%
- Cc1ccc(S(=O)(=O)N2CCCCC(N3CCN(C)CC3)C2)cc1F (stereo not drawn) — higher, -5.17%
- CNC(=O)C1CCCCN1C(=O)c1n[nH]c(=O)c2ccccc12 (stereo not drawn) — higher, -6.33%
- c1ccc2c3c([nH]c2c1)CN(Cc1cc2n(n1)CCNC2)CC3 — higher, 21.1%
- CCCC(C)NCc1cccnc1N1CCN(c2ccccn2)CC1 (stereo not drawn) — higher, -5.62%
- O=C(NCC1(O)CCOCC1)c1ccc(F)cc1 — higher, -4.94%
- Cc1nsc(NCc2ccc(S(=O)(=O)N(C)C(C)C)cc2)n1 — higher, 16.6%
- Cc1nc(CC(=O)N2CCN(Cc3ccc(C#N)cc3)CC2)cs1 — higher, -1.78%
- CCS(=O)(=O)NCC1OCCc2cn(CCOC)nc21 (stereo not drawn) — higher, -3.26%
- O=C(CC1CCN(c2cccnn2)CC1)Nc1cccnc1 — higher, -6.44%
- CCCC1c2cccn2CCN1C(=O)Cn1cnc2sc(C)cc2c1=O (stereo not drawn) — higher, -12.3%
- Cc1nsc(N2CCN(C(=O)Nc3cccc(F)c3)CC2)n1 — higher, 13.5%
- CCn1nc(C)c2nc(C(C)C)nc(NCCCn3ccnc3)c21 — higher, -17.9%
- O=C(c1cocn1)N1CCC[C@]2(C[C@@H](Oc3ncccc3F)CO2)C1 — higher, -5.09%
- CC(=O)N1CCC(Nc2cccc(OC(F)F)c2C)CC1 — higher, -7.15%
- CC(C)C1CN(Cc2nccn2C(C)C)CCC(=O)N1CC1CC1 (stereo not drawn) — higher, 0.0298%
- COc1cccc2c1ccn2CC(=O)N1CCCC(C(=O)O)C1 (stereo not drawn) — higher, 21.4%
- NC(=O)C(NC(=O)c1cc(Br)c[nH]1)c1ccccc1 (stereo not drawn) — higher, 10.8%
- CCN1CCC(NC(=O)CN2CCCC2Cn2cccn2)CC1 (stereo not drawn) — higher, 32.9%
- CCc1nc(C2CCCN2C(=O)CCc2nc(C(C)(C)C)no2)no1 (stereo not drawn) — higher, 15.3%
- Cc1noc(C)c1CS(=O)(=O)CC(=O)NCCc1cccs1 — higher, 15.1%
- CN(C)C(=O)COCc1cncc2c1CCN(Cc1ccccn1)C2 — higher, -7.2%
- CC(C)CCNC(=O)Cc1cnc(-n2cccc2)s1 — lower, -21%
- COc1ccc(CC(=O)N2CCN(Cc3ccco3)C[C@H]2C)cc1OC — higher, -5.07%
- Cc1cnc(N2CC[C@@H]3CN(Cc4ccncc4)CCO[C@@H]3C2)nc1 — higher, 8.21%
- CCc1c(C(=O)N2CCC3(CC(=O)NC3=O)C2)csc1C (stereo not drawn) — higher, -5.51%
- Cc1nc(-c2c(-c3ccccc3)ncn2[C@H]2C[C@@H](C(=O)O)N(C)C2)co1 — higher, -11.1%
- CN(Cc1ccncc1)C(CO)c1cccc(Br)c1 (stereo not drawn) — lower, -21%
- Cc1cccc(NC(=O)N2CCC(CO)(Nc3ccccc3)CC2)c1 — higher, -5.03%
- CCCN1CCC(NCc2cccc(CN3CCOC(C)C3)c2)CC1 (stereo not drawn) — higher, 27.7%
- CC(C)(C)C(=O)NCCC(=O)NS(=O)(=O)c1ccc2c(c1)OCCO2 — higher, 0.749%
- N#Cc1cccnc1N1CCCN(C(=O)CCn2cncn2)CC1 — higher, -4.22%
- O=S(=O)(NCCn1cc(C2CCCNC2)nn1)c1ccc(Cl)cc1 (stereo not drawn) — higher, -9.08%
- Cc1ccc(C)c(NC(=O)c2coc(C)n2)c1 — higher, -6.52%
- CNC(=O)C(C)NC(=O)c1cc(COc2ccc(OC)cc2Cl)[nH]n1 (stereo not drawn) — higher, -2.95%
- CCn1c(C)cc(C(=O)N2CCCC(c3nc(C)no3)C2)c1C (stereo not drawn) — higher, -3.95%
- O=S(=O)(NCC1(O)CCOc2ccccc21)c1ccc(Br)s1 (stereo not drawn) — higher, 3.29%
- CC1c2ncc(CNC(=O)C3CC3)n2CCN1Cc1cnn(C)c1 (stereo not drawn) — higher, -12%
- COc1ccc(CNC(C)c2ccccc2Cl)c(OC)c1OC (stereo not drawn) — higher, 18.3%
- CO[C@H]1CN(C(=O)c2cccnc2)[C@@H]2CCCO[C@H]12 — higher, -11.9%
- CC(CC(=O)NS(C)(=O)=O)C1CCCCC1 (stereo not drawn) — higher, -13.9%
- CS(=O)(=O)N1C[C@@H]2CC[C@H](C1)N(CCC(=O)NCc1ccccc1F)C2 — higher, 21.2%
- CCOc1ccc(N(C)S(=O)(=O)c2c[nH]c(C(C)C)n2)cc1 — higher, -4.89%
- COCCO[C@H]1CCN(C(=O)c2cnoc2C)[C@H]1Cc1cnn(C)c1 — higher, -5.22%
- COCC1CCCCN1C(=O)c1cc(Cn2ccc3ccccc32)[nH]n1 (stereo not drawn) — higher, -2.47%
- Cc1cc(C)nc(C2CCCN2C(=O)c2coc(C)n2)n1 (stereo not drawn) — higher, 23%
- COc1ccc(C)cc1C(C)NC(=O)Cn1ccc(=O)n(C)c1=O (stereo not drawn) — higher, -1.39%
- CCOCC(O)CN1CCN(C(=O)c2cc(F)cc(F)c2)CC1 (stereo not drawn) — higher, -2.71%
- CCCc1nc(CN2CCc3c(ncn3C3CC3)C2)cs1 — higher, -5.23%
- COC(=O)CN1Cc2cc3c(cc2NCCC1=O)OCO3 — higher, -9.74%
- CCCNC(=O)c1ccc(NC(=O)c2cccc(OCC)c2)cc1 — higher, -7.63%
- CNCc1cn(C[C@H]2CC3CCN2C[C@@H]3C(=O)Nc2ccccc2)nn1 (stereo partly drawn) — higher, -9.94%
- Cc1ccc(C)c(-c2[nH]c3ccccc3c2C(=O)O)c1 — higher, -12.7%
- c1nc(NCC2(N3CCOCC3)CCSC2)c2sccc2n1 (stereo not drawn) — higher, -4.54%
- O=C(c1cc2c(s1)CCCC2)N1CCCC1Cn1cccn1 (stereo not drawn) — higher, -4.37%
- OC[C@H]1CN(C2Cc3ccccc3C2)C[C@H]1CN1CCC(O)CC1 — higher, -7.74%
- Cc1nc(CN(C)C(=O)Nc2cccc(COC(C)C)c2C)no1 — higher, -4.14%

From ChEMBL document CHEMBL3507680, “University of Dundee, Gates Library screen for HepG2 cell viability”
